{
  "source": "paper PMC7038073",
  "about": "“Substituted Piperazines as Novel Potential Radioprotective Agents” (Molecules, 2020)",
  "key": {"[1]": {"test": "WST-1 cytotoxicity test, A549", "format": "cell-based", "details": "human, A549 cells, 48 h, WST-1, mean ± SD of three experiments, read-out: relative viability (%) compared to untreated control; for viability at 48 h, 10 µM: A549, 10 µM; for viability at 48 h, 100 µM: A549, 100 µM", "in_short": "(§1)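 Plate cells, add compound at 10 or 100 µM, incubate 48 h, then develop with WST-1 and read at 440 nm. Express proliferation as a percentage of untreated controls.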"}, "[2]": {"test": "WST-1 cytotoxicity test, MCF-7", "format": "cell-based", "details": "human, MCF-7 cells, 48 h, WST-1, mean ± SD of three experiments, read-out: relative viability (%) compared to untreated control; for viability at 48 h, 10 µM: MCF-7, 10 µM; for viability at 48 h, 100 µM: MCF-7, 100 µM", "in_short": "as §1"}, "[3]": {"test": "Safe use evaluation in vivo (MTD, symptoms, blood biochemistry, histopathology)", "design": "key to piloerection / ataxia / prostration / tremor / excitation / saber-like tail / stooping / hyper/hypoventilation / drop of eyelids / lacrimation / convulsion: + (mild); ++ (moderate); +++ (severe)", "details": "both sexes, mouse, in vivo, ip; BALB/c mice, i.p., two males and two females per group; read-out: MTD (maximum tolerated dose)", "text": "(§2) Mild to moderate signs of intoxication could be observed once the MTD (maximum tolerated dose) was reached. In vivo, MTD is described as the highest dose of a given compound that can be administered before showing signs of toxicity (based on the same dose regimen or series) and whose excess would be expected to be fatal, yielding unreliable results. Therefore, a staged approach (including core and intermediate dose levels) has become a suitable strategy in this regard.\n(§3) The symptoms described in Tables S1 (in Supplementary Materials) and S2 (in Supplementary Materials) diminished spontaneously within 2 h. After observing these symptoms, MTD thresholds were set at 100, 200, 100, 200, 2000, and 650 mg/kg for compounds 4, 5, 6, 7, 8, and 10, respectively. Animals receiving MTD were further examined by necropsy 48 h after administration. Plasma (reflecting biochemical changes in blood), intestine with mesentery (site of administration), and liver and kidney (elimination organs) were collected to evaluate the toxic potential of the tested compounds. For evaluation of the impact of the compounds on organ function, we performed blood biochemistry test 48 h after administration. The test focused on seven important indicators: glucose and amylase for normal function of pancreas, alanine aminotransferase (ALT), aspartate aminotransferase (AST), and alkaline phosphatase (ALP) for the normal function of liver, and urea and creatinine for the normal function of kidneys. […] According to Thoolen et al., focal necrosis can be occasionally seen in untreated rodents and therefore is not pathognomonic of hepatotoxicity, which is consistent with our findings.\n(§4) Both male and female BALB/c mice (Velaz s r.o., Prague, Czech Republic) with an average weight of 21 ± 0.8 g and 21 ± 0.8 g, respectively, were selected for the safe use evaluation in vivo. The mice were housed in environmentally controlled breeding units (Faculty of Military Health Sciences vivarium; temperature 21 ± 1 °C, 12/12 h light/dark cycle) with access to food (Cerea corp., Pardubice, Czech Republic) and water ad libitum. The acclimatization period of the mice was at least 10 days before each experiment. All experimental procedures and protocols were reviewed and approved by the Ethics Committee of the Faculty of Military Health Sciences in Hradec Kralove, University of Defence in Brno. Compounds 2, 3, 4, 5, 6, 7, 8, 9, and 10 were dissolved in physiological saline solution (B. Braun Melsungen AG, Melsungen, Germany) and injected intraperitoneally (i.p.) into the corresponding mouse groups, which were composed of two males and two females. Several doses were administered to determine the maximum tolerated dose (MTD), which was assessed by close observation for signs of toxicity within the first two hours after administration of the compounds, and then regularly over the following 48 h. The observed symptoms were registered according to the laboratory Animal Science Association UK guidelines (for a detailed description, see [36]. After 48 h, the surviving animals were euthanized with CO2 and evaluated by basic macroscopic necropsy. Venous blood was collected into heparinized tubes (Scanlab Systems, Prague, Czech Republic) and the plasma was separated in a U-320R centrifuge (Boeco, Hamburg, Germany) to further evaluate the toxic potential of the tested compounds. The concentrations of glucose, urea, and creatinine and the levels of alanine aminotransferase (ALT), aspartate aminotransferase (AST), alkaline phosphatase (ALP), and amylase were evaluated in a qualified biochemical laboratory of the University Hospital Hradec Kralove (Hradec Kralove, Czech Republic). Additionally, intestine, liver, and kidney samples were collected for histopathologic examination. […]"}, "BALB/c mice": {"test_system": "BALB/c mice", "test": "Safe use evaluation in vivo (MTD, symptoms, blood biochemistry, histopathology)", "design": "key to piloerection / ataxia / prostration / tremor / excitation / saber-like tail / stooping / hyper/hypoventilation / drop of eyelids / lacrimation / convulsion: + (mild); ++ (moderate); +++ (severe)", "details": "for ALP / ALT / AST / Amylase / Creatinine / Glucose / Urea: plasma 48 h after MTD i.p.", "text": "as §2, §3, §4"}, "[4]": {"details": "female BALB/c mice, animals 1 and 2"}, "[5]": {"details": "female mice, at MTD i.p., animals 1 and 2"}, "[6]": {"details": "male BALB/c mice, animals 1 and 2"}, "[7]": {"details": "male mice, at MTD i.p., animals 1 and 2"}},
  "note": "Values joined by “and” are separate entries in the source; they are usually repeats but may differ in a detail not shown here. Identical values can stand only once. Counter-ions that a name gives are not always drawn.",
  "data": [
    {"smiles": "OCCN1CCN(CC(O)CN2CCN(CCO)CC2)CC1", "note": "[Compound 8, 1.3-bis [4-(2-hydroxyethyl)piperazin-1-yl)propan-2-ol tetrahydrochloride]", "values": [
      {"measurement": "viability at 48 h, 10 µM", "setting": "[1]", "result": "97 ± 5", "unit": "%"},
      {"measurement": "viability at 48 h, 100 µM", "setting": "[1]", "result": "111 ± 11", "unit": "%"},
      {"measurement": "viability at 48 h, 10 µM", "setting": "[2]", "result": "101 ± 5", "unit": "%"},
      {"measurement": "viability at 48 h, 100 µM", "setting": "[2]", "result": "96 ± 7", "unit": "%"},
      {"measurement": "MTD at 48 h", "setting": "[3]", "result": 2000, "unit": "mg/kg"},
      {"measurement": "ALP", "setting": "BALB/c mice; [4]", "result": "121 U/L and 81 U/L"},
      {"measurement": "ALT", "setting": "BALB/c mice; [4]", "result": "20 U/L and 23 U/L"},
      {"measurement": "AST", "setting": "BALB/c mice; [4]", "result": "78 U/L and 67 U/L"},
      {"measurement": "Amylase", "setting": "BALB/c mice; [4]", "result": "1798 U/L and 2455 U/L"},
      {"measurement": "Creatinine", "setting": "BALB/c mice; [4]", "result": 79, "unit": "µg/dL"},
      {"measurement": "Glucose", "setting": "BALB/c mice; [4]", "result": "171 mg/dL and 210 mg/dL"},
      {"measurement": "Urea", "setting": "BALB/c mice; [4]", "result": "35 mg/dL and 40 mg/dL"},
      {"measurement": "excitation", "setting": "BALB/c mice; [5]", "result": "+"},
      {"measurement": "tremor", "setting": "BALB/c mice; [5]", "result": "+"},
      {"measurement": "ALP", "setting": "BALB/c mice; [6]", "result": "71 U/L and 82 U/L"},
      {"measurement": "ALT", "setting": "BALB/c mice; [6]", "result": "26 U/L and 22 U/L"},
      {"measurement": "AST", "setting": "BALB/c mice; [6]", "result": "65 U/L and 56 U/L"},
      {"measurement": "Amylase", "setting": "BALB/c mice; [6]", "result": "2674 U/L and 2327 U/L"},
      {"measurement": "Creatinine", "setting": "BALB/c mice; [6]", "result": "57 µg/dL and 56 µg/dL"},
      {"measurement": "Glucose", "setting": "BALB/c mice; [6]", "result": "202 mg/dL and 249 mg/dL"},
      {"measurement": "Urea", "setting": "BALB/c mice; [6]", "result": "41 mg/dL and 37 mg/dL"},
      {"measurement": "excitation", "setting": "BALB/c mice; [7]", "result": "+"},
      {"measurement": "tremor", "setting": "BALB/c mice; [7]", "result": "+"},
      {"measurement": "weight at 24 h (%)", "setting": "BALB/c mice; [7]", "result": -3.8, "unit": "%"},
      {"measurement": "weight at 48 h (%)", "setting": "BALB/c mice; [7]", "result": -2.9, "unit": "%"}
    ]},
    {"smiles": "Cl.Cl.Cl.OCCN1CCN(CC(O)CNc2ccccc2)CC1", "note": "(stereo not drawn) [Compound 10, 1-(phenylamino]-3-[4-(2-hydroxyethyl)piperazin-1-yl)propan-2-ol trihydrochloride]", "values": [
      {"measurement": "viability at 48 h, 10 µM", "setting": "[1]", "result": "105 ± 9", "unit": "%"},
      {"measurement": "viability at 48 h, 100 µM", "setting": "[1]", "result": "105 ± 2", "unit": "%"},
      {"measurement": "viability at 48 h, 10 µM", "setting": "[2]", "result": "98 ± 2", "unit": "%"},
      {"measurement": "viability at 48 h, 100 µM", "setting": "[2]", "result": "96 ± 6", "unit": "%"},
      {"measurement": "MTD at 48 h", "setting": "[3]", "result": 650, "unit": "mg/kg"},
      {"measurement": "histopathological change: focal necrosis", "setting": "BALB/c mice; at MTD i.p., necropsy 48 h after administration, one animal each", "result": "five small foci"},
      {"measurement": "ALP", "setting": "BALB/c mice; [4]", "result": "67 U/L and 73 U/L"},
      {"measurement": "ALT", "setting": "BALB/c mice; [4]", "result": "27 U/L and 24 U/L"},
      {"measurement": "AST", "setting": "BALB/c mice; [4]", "result": "55 U/L and 56 U/L"},
      {"measurement": "Amylase", "setting": "BALB/c mice; [4]", "result": "1939 U/L and 1826 U/L"},
      {"measurement": "Creatinine", "setting": "BALB/c mice; [4]", "result": "68 µg/dL and 67 µg/dL"},
      {"measurement": "Glucose", "setting": "BALB/c mice; [4]", "result": "225 mg/dL and 178 mg/dL"},
      {"measurement": "Urea", "setting": "BALB/c mice; [4]", "result": 38, "unit": "mg/dL"},
      {"measurement": "ataxia", "setting": "BALB/c mice; [5]", "result": "+"},
      {"measurement": "convulsion", "setting": "BALB/c mice; [5]", "result": "+"},
      {"measurement": "excitation", "setting": "BALB/c mice; [5]", "result": "+"},
      {"measurement": "hyper/hypoventilation", "setting": "BALB/c mice; [5]", "result": "+"},
      {"measurement": "prostration", "setting": "BALB/c mice; [5]", "result": "++"},
      {"measurement": "tremor", "setting": "BALB/c mice; [5]", "result": "+"},
      {"measurement": "weight at 24 h (%)", "setting": "BALB/c mice; [5]", "result": "-1.5% and -5.6%"},
      {"measurement": "ALP", "setting": "BALB/c mice; [6]", "result": "42 U/L and 61 U/L"},
      {"measurement": "ALT", "setting": "BALB/c mice; [6]", "result": "24 U/L and 30 U/L"},
      {"measurement": "AST", "setting": "BALB/c mice; [6]", "result": "58 U/L and 51 U/L"},
      {"measurement": "Amylase", "setting": "BALB/c mice; [6]", "result": "2212 U/L and 2080 U/L"},
      {"measurement": "Creatinine", "setting": "BALB/c mice; [6]", "result": 34, "unit": "µg/dL"},
      {"measurement": "Glucose", "setting": "BALB/c mice; [6]", "result": "189 mg/dL and 236 mg/dL"},
      {"measurement": "Urea", "setting": "BALB/c mice; [6]", "result": "47 mg/dL and 43 mg/dL"},
      {"measurement": "ataxia", "setting": "BALB/c mice; [7]", "result": "+"},
      {"measurement": "excitation", "setting": "BALB/c mice; [7]", "result": "+"},
      {"measurement": "hyper/hypoventilation", "setting": "BALB/c mice; [7]", "result": "+"},
      {"measurement": "prostration", "setting": "BALB/c mice; [7]", "result": "++"},
      {"measurement": "tremor", "setting": "BALB/c mice; [7]", "result": "+"}
    ]}
  ]
}
